Assay results reported in the CheMixHub ionic liquid set.

Experiment: xn = mol fraction of the nth substance listed
Conditions: 100 kPa

CCCCCCCC[n+]1ccccc1.[Br-] + CC(C)[C@H](NC(=O)CN)C(=O)O + O
electrical conductivity [S/m]
Conditions	288.15 K	293.15 K	298.15 K
x2 = 0.0008946, x1 = 0.006158	–	1.51	1.7
x2 = 0.0008946, x1 = 0.00616	1.33	–	–
x2 = 0.0008949, x1 = 0.00588	–	–	1.65
x2 = 0.0008949, x1 = 0.005882	–	1.47	–
x2 = 0.0008949, x1 = 0.005884	1.29	–	–
x2 = 0.0008952, x1 = 0.005573	–	1.42	1.6
x2 = 0.0008952, x1 = 0.005575	1.25	–	–
x2 = 0.0008955, x1 = 0.005246	–	–	1.55
x2 = 0.0008955, x1 = 0.005248	1.21	1.38	–
x2 = 0.0008958, x1 = 0.004885	–	–	1.49
x2 = 0.0008958, x1 = 0.004887	1.17	1.32	–
x2 = 0.0008961, x1 = 0.004505	–	1.27	1.43
x2 = 0.0008961, x1 = 0.004507	1.12	–	–
x2 = 0.0008965, x1 = 0.004077	1.05	1.19	1.34
x2 = 0.0008969, x1 = 0.003608	0.964	1.1	1.23
x2 = 0.0008974, x1 = 0.003092	0.861	0.974	1.1
x2 = 0.0008979, x1 = 0.002527	0.74	0.84	0.942
x2 = 0.0008985, x1 = 0.001896	0.592	0.67	0.751
x2 = 0.0008988, x1 = 0.001509	0.493	0.557	0.623
x2 = 0.0008992, x1 = 0.001132	0.388	0.437	0.489
x2 = 0.0008995, x1 = 0.0007259	0.276	0.309	0.343
x2 = 0.001788, x1 = 0.005721	–	1.4	–
x2 = 0.001788, x1 = 0.005723	1.23	–	–
x2 = 0.001788, x1 = 0.005981	1.26	1.44	–
x2 = 0.001789, x1 = 0.00542	–	1.36	–
x2 = 0.001789, x1 = 0.005422	1.19	–	–
x2 = 0.00179, x1 = 0.004736	–	1.26	–
x2 = 0.00179, x1 = 0.004738	1.11	–	–
x2 = 0.00179, x1 = 0.005091	1.15	1.31	–
x2 = 0.001791, x1 = 0.004351	1.06	1.2	–
x2 = 0.001792, x1 = 0.003932	0.991	1.12	–
x2 = 0.001793, x1 = 0.002972	–	0.917	–
x2 = 0.001793, x1 = 0.002974	0.81	–	–
x2 = 0.001793, x1 = 0.003476	0.909	1.03	–
x2 = 0.001794, x1 = 0.002419	0.692	0.785	–
x2 = 0.001796, x1 = 0.001458	0.463	0.521	–
x2 = 0.001796, x1 = 0.001805	0.55	0.621	–
x2 = 0.001797, x1 = 0.0007114	0.261	0.293	–
x2 = 0.001797, x1 = 0.001099	0.365	0.411	–
